In patent US11261189B2, “Substituted 2,4 diamino-quinoline as new medicament for fibrosis, autophagy and cathepsins B (CTSB), L (CTSL) and D (CTSD) related diseases” (Genoscience Pharma, priority 2018, dated 2022):
Entries after “also recorded” stand apart in the source; their conditions may differ. Counter-ions that a name gives are not always drawn.

How the values were obtained:
[1] = tested on: autophagy flux (LC3-II) in HepG2 cell line; test: Autophagy flux, LC3-II immunoblot with/without Bafilomycin, HepG2 cell line; type: cell-based; conditions: 4 hours and 24 hours of treatment
Experimental: Since compound 2-3 induced an inhibition of the proteolytic activity of cathepsins B, D and/or L (see example 1) supporting an inhibition of some lysosomal functions which can affect the cellular autophagy flux, the capacity of compound 2-3 to modulate the cellular autophagy processes and functions was evaluated in two Hepatocellular carcinoma (HCC) cell lines: Huh7 and HepG2. For this purpose, the accumulation of LC3-II (Light Chain 3 phosphatidylethanolamine conjugate) in presence or absence of compound 2-3 was analyzed using immunoblot analysis of LC3-II.
The HepG2 cell line was maintained in DMEM low glucose (Cat #21885025, ThermoFischer) containing 1% penicillin-streptomycin (Cat #P06-07100, Dutscher) and 10% FBS (Cat #SV30160.03C, Dutscher). The Huh7 cell line was maintained in DMEM high glucose (Cat #L0103-500, Dutscher) containing 1% penicillin-streptomycin (Cat #P06-07100, Dutscher) and 10% SVF (Cat #SV30160.03C, Dutscher). Cells lines were cultured at 37° C. with 5% CO2.
The day before the experiment, 6-well plates with 250,000 cells for HepG2 and 310,000 cells for Huh7 in 1.8 mL of medium per well were prepared. […]
After 4 hours and 24 hours of cells treatment, the medium was removed from each well. […] Total protein concentration was assessed using the BCA reagent (Cat #23227, ThermoFischer) and cellular lysates were stored at −80° C. until western-blot analysis. […]

[2] = tested on: diethyl nitrosamine (DEN) cirrhotic rat model of liver fibrosis; test: DEN induced cirrhosis in rats, study 1: Sirius red quantification of liver fibrosis; type: in vivo; conditions: 6 weeks after 14 weeks DEN
Source text: This animal model allows developing an extensive liver fibrosis, leading to a compensated liver cirrhosis with a multifocal hepatocarcinoma (HCC) after 14 weeks of induction (Schiffer, E. et al. Hepatology 2005 (41), 307-314). The DEN cirrhotic rat animal model was used here as a specific animal model of liver fibrosis.
Forty two Fisher 344 male rat (obtained from Charles River Laboratories France, including spare animals), weighting approximately 280 g at the start of the study, were randomized in 5 groups of 8 (groups 1, 2, 3 and 5) or 6 (group 4) animals and housed with 3 animals per cage, given free access to food and water and allowed to acclimate for at least 5 days prior to test initiation.
The DEN cirrhotic rat model was obtained after 14 weekly intraperitoneal injections of DEN (intra-peritoneal injections (i.p.) of DEN at 50 mg/kg/week). The animals were then treated according to Table 9 during 6 weeks. In this in vivo experiment, the anti-fibrotic activity of compound 2-3 was evaluated in liver fibrosis animal model, alone or in combination with Sorafenib (a multikinase inhibitor of Raf-1, B-Raf, VEGFR-2, VEGFR3, PDGFRβ, Flt3 and c-Kit). After 6 weeks of treatment, all animals were sacrificed using CO2 and rat livers were collected for analysis. The quantification of the liver fibrotic tissue was evaluated by Sirius red staining of rat liver sections.
Group 1 contained 8 animals which were daily dosed (q.d.) by oral gavage (per os, p.o.) with the vehicle during 6 weeks.
Group 2 contained 8 animals which were daily dosed (q.d.) by oral gavage (per os, p.o.) with Sorafenib at 10 mg/kg/day during 6 weeks.
Group 3 contained 8 animals which were daily dosed (q.d.) by oral gavage (per os, p.o.) with compound 2-3 at 15 mg/kg/day during 6 weeks.
Group 4 contained 6 animals which were daily dosed (q.d.) by oral gavage (per os, p.o.) with compound 2-3 at 15 mg/kg/day in combination with Sorafenib at 10 mg/kg/day during 6 weeks.
Group 5 contained 8 animals which were daily dosed (q.d.) by oral gavage (per os, p.o.) with compound 2-3 at 30 mg/kg/day during 6 weeks. […]

For `CC(C)(C)NC1CCN(c2cc(NCc3ccc(Cl)cc3)nc3ccccc23)CC1` [2-3, 2-(4-chlorobenzylamino)-4-(4-tert-butylaminopiperidin-1-yl)-quinoline Hydrochloride Salt], the “accumulation of the LC3-II form” value [1] was “significantly induced, in a dose-dependent manner, an accumulation of the LC3-II form”, the “autophagy flux (LC3-II Baf+/Baf− ratio)” value ([1]; Hydrochloride Salt) was “inhibition; also recorded: inhibitor of the autophagy flux” and the “reduction of the level of collagen fibers deposition (Sirius red) compared to the control group” value ([2]; group 3: 15 mg/kg/day p.o. q.d., p<0.05) was 41.0%. The “reduction of the level of collagen fibers deposition (Sirius red) compared to the control group” value ([2]; group 5: 30 mg/kg/day p.o. q.d., p=0.01) was 45.3%.
